Data as given in patent US20230172940A1, “METHODS OF EXTENDING LIFESPAN BY ADMINISTERING FERROPTOSIS INHIBITORS” (COLLABORATIVE MEDICINAL DEVELOPMENT, LLC, priority 2020, published 2023).

Key:
Format in all cases: in vivo, Caenorhabditis elegans
C. elegans = test: Body size analysis
Protocol: […] The treatment plates included NGA with 0.5% (v/v) DMSO (vehicle control, Ctl), 250 μM SIH, or 200 μM Lip-1 (as described above).
Cohorts of approximately 100 animals were transferred into a 1.5 ml centrifuge tube containing 400 μL S-basal. Following a brief centrifugation excess S-basal was removed leaving the animals suspended in 50 μL. Animals were euthanized and straightened by a 15 second exposure to 60° C. (using a heated water bath). Samples were then mounted between glass slides and a cover slip and immediately imaged. Micrographs were collected using a Leica M80 stereomicroscope and Leica DFC290 HD 3 MP) digital camera. Pixel sizes were defined using a calibrated 25 μm grid slide (Microbrightfield, Inc). Size and shape metrics were extracted from brightfield images were analyzed using the WormSizer plugin for ImageJ.
Data of estimated adult body length and volume were initially assessed for normality using a D'Agostino & Pearson test. Based on this analysis a nonparametric Kruskal-Wallis Analysis of Variance (ANOVA) was performed followed by a Dunn-Šidák test for multiple comparisons (as implemented by Prism v7.0a, GraphPad Software). There was a significant difference between body length (H(10)=432.6, p<0.0001) amongst the groups measured.

[1] = test system: dead cells within live C. elegans; test: Visualization of cell death with propidium iodide; conditions: for cell death (propidium iodide), preceding organismal death: aged cohorts or young animals treated with DEM, 4-day old and 6 and 8 day old adults; for cell death (animals with any dead cells): at 6 and 8 days of age
Protocol: The red-fluorescent propidium iodide (PI)^o was used to visualize dead cells within live C. elegans after DEM treatment and during aging. Populations were incubated for 24 h at 25° C. with PI (a 10 μL volume of 0.25 mg/mL solution added to the bacterial lawn on 50 mm NGM plates) prior to the described age or with concurrent exposure to 10 mM DEM (as described above) and PI. For aging experiments^o animals were visualized at Day 6 and Day 8. Cohorts of live animals (i.e. showing spontaneous or touch-provoked movement) were isolated and mounted under glass coverslips on 2% agarose pads without anesthetic. Imaging were captures with on a Leica DMI3000B inverted microscope^o DsRed filter set and a DFC 3000G digital.
Differences between the proportion of live animals with fluorescently labelled nuclei in control versus Lip-1 and SIH treatment, either aged or exposed to DEM, were compared using a z-test.

iron = test: X-ray fluorescence microscopy, elemental mapping of iron; set-up: areal density of iron, Mean Diff. / total body iron, 75% Percentile / total body iron, Maximum / total body iron, Mean / total body iron, Minimum / total body iron, 25% Percentile / total body iron, Median / total body iron, Mean Diff.: unit not given here; conditions: for areal density iron, 25% Percentile / areal density iron, 75% Percentile / areal density iron, Maximum / areal density iron, Mean / areal density iron, Median / areal density iron, Minimum / total body iron, 25% Percentile / total body iron, 75% Percentile / total body iron, Maximum / total body iron, Mean / total body iron, Median / total body iron, Minimum: 250 μM SIH or 200 μM Lip-1; for areal density of iron with aging: Tables 11 and 12; for total body iron, 25% Percentile / total body iron, 75% Percentile / total body iron, Maximum / total body iron, Mean / total body iron, Median / total body iron, Minimum: per worm
Protocol: Specimens were prepared for XFM using previously described protocols. Briefly, adult C. elegans were removed from NGM, washed four times in excess S-basal (0.1 M NaCl; 0.05 M KHPO4 at pH 6.0), briefly in ice-cold 18 MΩ resistant de-ionized H2O (Millipore) and twice in ice-cold CH3COONH4 (1.5% w/v). Samples were transferred onto 0.5 μm-thick silicon nitride (Si3N4) window (Silson), excess buffer wicked away and then the slide was frozen in liquid nitrogen (N2)-chilled liquid propane using a KF-80 plunge freezer (Leica Microsystems). The samples were lyophilised overnight at −40° C. and stored under low vacuum until required.
The distribution of metals was mapped at the X-ray Fluorescence Microscopy beamline at the Australian Synchrotron using the Maia detector system. The distribution of elements with atomic number<37 were mapped using an incident beam of 15.6 keV X-rays. This incident energy allowed clear separation of X-ray fluorescence (XRF) peaks from the relatively intense elastic and inelastic scatter. The incident beam (^˜1.71×10^9 photons s^−1) was focussed to approximately 2×2 μm^2(H×V, FWHM) in the sample plane and the specimen was continuously scanned through focus (1 mm sec^−1). The resulting XRF was binned in 0.8 jim intervals in both the horizontal and vertical giving virtual pixels spanning 0.64 jim^2 of the specimen probed with a dwell time of […]. XRF intensity was normalized to the incident beam flux monitored with a nitrogen filled ionization chamber with a 27 cm path length placed upstream of the focusing optics. Three single-element thin metal foils of known areal density (Mn 18.9 jig cm^−2, Fe 50.1 jig cm^−2 and Pt 42.2 jig cm^−2, Micromatter, Canada) were used to calibrate the relationship between fluorescence flux at the detector and elemental abundance. Dynamic Analysis, as implemented in GeoPIXE 7.3 (CSIRO), was used to deconvolve the full XRF spectra at each pixel in the scan region to produce quantitative elemental maps. This procedure includes a correction for an assumed specimen composition and thickness, in this case 30 jim of cellulose. Though unlikely to exactly match the actual sample characteristics, deviations from these assumptions are not significant for the results presented in this study as the effects of beam attenuation and self-absorption on calcium and iron XRF are negligible for a dried specimen of this type and size.
Analysis of elemental XRF maps was performed using a combination of tools native to GeoPIXE and ImageJ. Incident photons inelastically scattered (Compton scatter) from the sample detail the extent and internal structure of individual C. elegans. The differential scattering power of the specimens and substrate allowed individual animals (or parts thereof) to be identified as regions of interest (ROI) facilitating analysis of elemental content on a ‘per worm’ basis. This segmentation of each elemental map was achieved using the histogram of pixel intensities from Compton maps to locate the clusters within the image. ROIs composed of <10,000 pixels were deemed to be so small that their elemental content was not reflective of the elemental content of whole animals and so these were excluded from the analysis. The ‘non-worm’ region of each scan was used to calculate the value specimen elemental content was distinguishable from background noise, i.e. the critical value. The background corrected elemental maps were used to establish the areal densities and the total mass of each element associated with individual ROIs.

[2] = Day 4 Control vs. Day 4 treated (control minus treated)
[3] = Day 4 treated vs. Day 8 treated, same treatment
[4] = Day 8 Control vs. Day 8 treated (control minus treated)

Clc1cccc(CNC2=Nc3ccccc3NC23CCNCC3)c1 [Lip-1, N-[(3-chlorophenyl)methyl]-spiro[piperidine-4,2′(1′H)-quinoxalin]-3′-amine]
length or volume (C. elegans; in vivo): no effect on length or volume | cell death (propidium iodide), preceding organismal death [1]: significantly attenuated | cell death (animals with any dead cells) [1]: completely suppressed | areal density iron, 25% Percentile (iron; Day 4): 630.3 pg μm^−2 | areal density iron, 75% Percentile (iron; Day 4): 732.2 pg μm^−2 | areal density iron, Maximum (iron; Day 4): 851.8 pg μm^−2 | areal density iron, Mean (iron; Day 4): 698.5 pg μm^−2 | areal density iron, Median (iron; Day 4): 711.4 pg μm^−2 | areal density iron, Minimum (iron; Day 4): 590.5 pg μm^−2 | areal density of iron, Mean Diff. (iron; [2]): −32.28 | total body iron, Mean Diff. (iron; [2]): 12.74 | areal density of iron, Mean Diff. (iron; [3]): −123.1 | total body iron, Mean Diff. (iron; [3]): −51.79 | areal density iron, 25% Percentile (iron; Day 8): 726.5 pg μm^−2 | areal density iron, 75% Percentile (iron; Day 8): 892.4 pg μm^−2 | areal density iron, Maximum (iron; Day 8): 1143 pg μm^−2 | areal density iron, Mean (iron; Day 8): 821.6 pg μm^−2 | areal density iron, Median (iron; Day 8): 800.5 pg μm^−2 | areal density iron, Minimum (iron; Day 8): 644 pg μm^−2 | areal density of iron, Mean Diff. (iron; [4]): −1.229 | total body iron, Mean Diff. (iron; [4]): −10.7 | areal density of iron with aging (iron): did not alter iron density | total body iron, 25% Percentile (iron; Day 4): 91.34 | total body iron, 75% Percentile (iron; Day 4): 129.5 | total body iron, Maximum (iron; Day 4): 148.6 | total body iron, Mean (iron; Day 4): 113.3 | total body iron, Median (iron; Day 4): 114.6 | total body iron, Minimum (iron; Day 4): 71.51 | total body iron, 25% Percentile (iron; Day 8): 128.9 | total body iron, 75% Percentile (iron; Day 8): 189.6 | total body iron, Maximum (iron; Day 8): 277.9 | total body iron, Mean (iron; Day 8): 165.1 | total body iron, Median (iron; Day 8): 157.2 | total body iron, Minimum (iron; Day 8): 100

O=C(N/N=C/c1ccccc1O)c1ccncc1 [SIH, Salicylaldehyde isonicotinoyl hydrazone]
body volume (C. elegans; Day 4): greater volume than both control and Lip-1 treated worms | body length, mean±SD (C. elegans; Day 8, control 1440±123 μm, p<0.001): 1696±64 μm | body length versus similarly aged controls (C. elegans; after 4 days and 8 days of intervention): significantly longer | body volume over time (C. elegans; in vivo): increase in body volume between Days 1 and 4, but not thereafter | cell death (propidium iodide), preceding organismal death [1]: significantly attenuated | cell death (animals with any dead cells) [1]: completely suppressed | areal density iron, 25% Percentile (iron; Day 4): 298.3 pg μm^−2 | areal density iron, 75% Percentile (iron; Day 4): 357.3 pg μm^−2 | areal density iron, Maximum (iron; Day 4): 412.1 pg μm^−2 | areal density iron, Mean (iron; Day 4): 321.8 pg μm^−2 | areal density iron, Median (iron; Day 4): 304.4 pg μm^−2 | areal density iron, Minimum (iron; Day 4): 267.1 pg μm^−2 | areal density of iron, Mean Diff. (iron; [2]): 344.4 | total body iron, Mean Diff. (iron; [2]): 57.71 | areal density of iron, Mean Diff. (iron; Day 4 SIH vs. Day 4 Lip-1): −376.6 | total body iron, Mean Diff. (iron; Day 4 SIH vs. Day 4 Lip-1): −44.97 | areal density of iron, Mean Diff. (iron; [3]): −112.9 | total body iron, Mean Diff. (iron; [3]): −70.26 | total iron load (iron; Day 8): on par with the untreated control group | areal density iron, 25% Percentile (iron; Day 8): 381.9 pg μm^−2 | areal density iron, 75% Percentile (iron; Day 8): 501.9 pg μm^−2 | areal density iron, Maximum (iron; Day 8): 558 pg μm^−2 | areal density iron, Mean (iron; Day 8): 434.7 pg μm^−2 | areal density iron, Median (iron; Day 8): 408.9 pg μm^−2 | areal density iron, Minimum (iron; Day 8): 324.2 pg μm^−2 | areal density of iron, Mean Diff. (iron; [4]): 385.6 | total body iron, Mean Diff. (iron; [4]): 15.8 | areal density of iron, Mean Diff. (iron; Day 8 SIH vs. Day 8 Lip-1): −389.9 | total body iron, Mean Diff. (iron; Day 8 SIH vs. Day 8 Lip-1): −26.49 | areal density of iron with aging (iron): dramatically reduced | total body iron, 25% Percentile (iron; Day 4): 61.28 | total body iron, 75% Percentile (iron; Day 4): 71.8 | total body iron, Maximum (iron; Day 4): 98.92 | total body iron, Mean (iron; Day 4): 68.37 | total body iron, Median (iron; Day 4): 66.78 | total body iron, Minimum (iron; Day 4): 41.07 | total body iron, 25% Percentile (iron; Day 8): 117.5 | total body iron, 75% Percentile (iron; Day 8): 169.5 | total body iron, Maximum (iron; Day 8): 202 | total body iron, Mean (iron; Day 8): 138.6 | total body iron, Median (iron; Day 8): 127.5 | total body iron, Minimum (iron; Day 8): 74.16
